Assay results: patent publication US6342534B1, “Analogs of biologically active, naturally occurring polyamines, pharmaceutical compositions and methods of treatment” (University of Florida Research Foundation, Inc., priority 1986, dated 2002)
Read-outs that look alike come from different tables or passages of the source.

Assays:
[1] = test system: L1210 cells; experiment: Growth inhibition of L1210 cells (IC50 at 48/96 h); type: cell-based; conditions: Mus musculus
[2] = test system: a variety of tumors in cell culture; experiment: Anti-neoplastic activity against tumors in cell culture; type: cell-based
Text: (§1) If there is any significance to the role of charge interaction in the biological properties of the polyamine analogs, alterations in the polyamine methylene backbone should have significant impact on the compound's biological properties. […] The trifluoroethyl group substantially reduces the pKa of the terminal nitrogens and they are no longer protonated [J. Org. Chem., Vol. 24, “Fluorine containing nitrogen compounds—I Trifluoroethylamines,” Bissel et al, pages 1256-1259 (1959)]. Even though the dimensions of bis-β,β,β-trifluoroethylspermine and diethylspermine are essentially the same, what was once a tetracationic spermine analog is now only a dication. […] The same phenomenon is observed when one acetylates a terminal nitrogen of spermine. The amide nitrogen is not protonated at physiological pH, and the compound has no anti-neoplastic properties and behaves very much like spermidine in displacing ethidium iodide from DNA.

[3] = test system: calf thymus DNA; experiment: Displacement of ethidium iodide from calf thymus DNA; type: binding; conditions: compared with natural polyamines
Text: as §1

[4] = cited from earlier work
[5] = Table 1, 48 h, read-out: IC50 (μM) of L1210 cells at 48 h
[6] = Table 1, 96 h, read-out: IC50 (μM) of L1210 cells at 96 h

Compound | IC50 [1, 5] | IC50 [1, 6] | anti-neoplastic activity [2] | ability to displace ethidium iodide from calf thymus DNA [3] | SAT up-regulation (factor) [4]
c1cc(CNCCCCNCc2ccncc2)ccn1 | > 100 µM | 90 µM |  |  | 
FC(F)(F)CNCCCNCCCCNCCCNCC(F)(F)F [BTFESPM, bis-β,β,β-trifluoroethylspermine] |  |  | essentially disappears | behave more like putrescine than spermine | 
CCNCCCCNCCCCNCCCCNCC [DEHSPM, diethyl-homospermine] |  |  |  |  | little impact on SAT levels
CCNCCCNCCCNCCCNCC [DENSPM, diethylnorspermine] |  |  |  |  | 1,200 fold
CCNCCCNCCCCNCCCNCC [DESPM, N^1,N^12-diethylspermine] |  |  | quite active |  | 200 fold

More lines, main results first:

IC50 [1, 5] | IC50 [1, 6] | Compound | anti-neoplastic activity [2] | ability to displace ethidium iodide from calf thymus DNA [3] | SAT up-regulation (factor) [4]
2 µM | 0.2 µM | C(CCNCC1CCNCC1)CNCC1CCNCC1 |  |  | 
> 100 µM | 0.25 µM | C(CCNCCC1CCNCC1)CNCCC1CCNCC1 |  |  | 
> 100 µM | > 100 µM | c1cc(CCNCCNCCc2ccncc2)ccn1 |  |  | 
